Results as given in PMC7914897, “Cytotoxic Potential of a-Azepano- and 3-Amino-3,4-SeCo-Triterpenoids” (International Journal of Molecular Sciences, 2021).
Read-outs that look alike come from different tables or passages of the source.

Assays:
[1] = system: NCI-H23 (NSC lung cancer); test: NCI-60 screen (SRB, 48 h); settings: Homo sapiens; for GI50: NCI-H23; for IC (TGI): NCI-H23, 48 h, read-out: TGI
[2] = system: ACHN (Renal cancer); test: NCI-60 screen (SRB, 48 h); settings: Homo sapiens; for IC (TGI): 48 h, read-out: TGI
[3] = system: HCC-2998 (Colon cancer); test: NCI-60 screen (SRB, 48 h); settings: Homo sapiens; for GI50: HCC 2998
[4] = system: NCI-H460 (NSC lung cancer); test: NCI-60 screen (SRB, 48 h); settings: Homo sapiens; for GI50: NCI-H460; for IC (TGI): NCI-H460, 48 h, read-out: TGI; for CC50: NCI-H460, read-out: LC50
[5] = system: SK-MEL-5 (Melanoma); test: NCI-60 screen (SRB, 48 h); settings: for GI50 / IC (TGI) / CC50: Homo sapiens; for GI50: SK-MEL-5; for IC (TGI): SK-MEL-5, 48 h, read-out: TGI; for CC50: SK-MEL-5, read-out: LC50
[6] = system: RPMI-8226 (Leukemia); test: NCI-60 screen (SRB, 48 h); settings: Homo sapiens; for GI50: RPMI-8226; for IC (TGI): RPMI-8226, 48 h, read-out: TGI; for CC50: RPMI-8226, read-out: LC50
[7] = system: MDA-MB-435 (Melanoma); test: NCI-60 screen (SRB, 48 h); type: cell-based
[8] = system: Breast cancer subpanel; test: NCI-60 screen, subpanel; settings: Homo sapiens; for IC (TGI): 48 h, read-out: TGI MG_MID; for GI50: read-out: GI50 MG_MID; for CC50: read-out: LC50 MG_MID
[9] = system: MDA-MB-468 (Breast cancer); test: cells; settings: Homo sapiens; for GI50: MDA-MB-468; for IC (TGI): MDA-MB-468, 48 h, read-out: TGI; for CC50: MDA-MB-468, read-out: LC50
[10] = system: NCI-H522 (NSC lung cancer); test: NCI-60 screen (SRB, 48 h); settings: Homo sapiens; for GI50: NCI-H522; for IC (TGI): NCI-H522, 48 h, read-out: TGI
[11] = system: FaDu (hypopharyngeal carcinoma); test: SRB cytotoxicity assay, 72 h; type: cell-based, human; settings: Homo sapiens, cut-off 30 µM, read-out: EC50
Method in brief: (§1)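 Cytotoxicity is measured colorimetrically with sulforhodamine B after 72 h exposure to compound concentrations of 0–30 µM, added 24 h after seeding of exponentially growing cells. Survival relative to untreated wells yields EC50.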

[12] = system: MCF-7 (breast carcinoma); test: SRB cytotoxicity assay, 72 h; type: cell-based, human; settings: Homo sapiens, MCF7; MCF-7, 72 h, cut-off 30 µM; read-out: EC50
Method in brief: as §1

[13] = system: A2780 (ovarian carcinoma); test: SRB cytotoxicity assay, 72 h; type: cell-based, human; settings: Homo sapiens; A2780, 72 h, cut-off 30 µM; read-out: EC50
Method in brief: as §1

[14] = system: HT29 (colorectal carcinoma); test: SRB cytotoxicity assay, 72 h; type: cell-based, human; settings: Homo sapiens, HT-29; HT29, 72 h, cut-off 30 µM; read-out: EC50
Method in brief: as §1

[15] = system: A375 (malignant melanoma); test: SRB cytotoxicity assay, 72 h; type: cell-based, human; settings: Homo sapiens, A-375, 72 h, A375, 72 h, cut-off 30 µM; read-out: EC50
Method in brief: as §1

[16] = system: BT-549 (Breast cancer); test: NCI-60 screen (SRB, 48 h); type: cell-based; settings: Homo sapiens; for GI50: BT-549; for IC (TGI): BT-549, 48 h
[17] = system: SR (Leukemia); test: NCI-60 screen (SRB, 48 h); type: cell-based
[18] = system: 786-0 (Renal cancer); test: NCI-60 screen (SRB, 48 h); settings: Homo sapiens; for GI50: 786-0; for IC (TGI): 786-0, 48 h, read-out: TGI
[19] = system: UACC-257 (Melanoma); test: NCI-60 screen (SRB, 48 h); settings: Homo sapiens; for GI50: UACC-257; for IC (TGI): UACC-257, 48 h, read-out: TGI
[20] = system: Melanoma subpanel; test: NCI-60 screen, subpanel; settings: Homo sapiens; for IC (TGI): 48 h, read-out: TGI MG_MID; for GI50: read-out: GI50 MG_MID; for CC50: read-out: LC50 MG_MID
[21] = system: OVCAR-4 (Ovarian cancer); test: NCI-60 screen (SRB, 48 h); type: cell-based; settings: Homo sapiens; for IC (TGI): OVCAR-4, 48 h; for GI50: OVCAR-4, read-out: GI50
[22] = system: SF-539 (CNS cancer); test: NCI-60 screen (SRB, 48 h); settings: Homo sapiens; for GI50: SF-539; for IC (TGI): SF-539, 48 h, read-out: TGI
[23] = system: OVCAR-8 (Ovarian cancer); test: NCI-60 screen (SRB, 48 h); settings: Homo sapiens; for GI50: OVCAR-8; for IC (TGI): OVCAR-8, 48 h, read-out: TGI
[24] = system: NSC lung cancer subpanel; test: NCI-60 screen, subpanel; settings: Homo sapiens; for IC (TGI): 48 h, read-out: TGI MG_MID; for GI50: read-out: GI50 MG_MID; for CC50: read-out: LC50 MG_MID
[25] = system: SF-268 (CNS cancer); test: NCI-60 screen (SRB, 48 h); settings: Homo sapiens; for GI50: SF-268; for IC (TGI): SF-268, 48 h, read-out: TGI
[26] = Homo sapiens, MDA-MB-435, 48 h; read-out: TGI
[27] = Homo sapiens, MDA-MB-435; read-out: GI50

## C=C(C)C1CCC2(CO)CCC3(C)C(CCC4C5(C)CCCNC(C)(C)C5CCC43C)C12 (centres unmarked) [Compound 1, Azepanobetulin]
[1]
  GI50: 1710 nM
  IC (TGI): 3390 nM
[1]; NCI-H23, read-out: LC50
  CC50: 6680 nM
[2]
  GI50: 1700 nM
  IC (TGI): 3090 nM
[2]; read-out: LC50
  CC50: 5610 nM
[3]
  GI50: 1510 nM
[3]; HCC 2998, 48 h, read-out: TGI
  IC (TGI): 2930 nM
[3]; HCC 2998, read-out: LC50
  CC50: 5680 nM
[4]
  GI50: 1630 nM
  IC (TGI): 3210 nM
  CC50: 6300 nM
[5]
  GI50: 1380 nM
  IC (TGI): 2700 nM
  CC50: 5280 nM
[5]; SK-MEL-5, 1 dose 10 µM
  Growth % of the Most Sensitive Cell Lines: −82.49%
[6]
  GI50: 1940 nM
  IC (TGI): 4510 nM
  CC50: > 100000 nM
[7]; [26]
  IC (TGI): 2950 nM
[7]; [27]
  GI50: 1560 nM
[8]
  IC (TGI): 3550 nM
  GI50: 1710 nM
  CC50: 11500 nM
[9]
  GI50: 1660 nM
  IC (TGI): 3380 nM
  CC50: 6880 nM
[10]
  GI50: 1650 nM
  IC (TGI): 3420 nM
[11]
  EC50: 2320 ± 300 nM
[12]
  EC50: 1910 ± 100 nM
[13]
  EC50: 2390 ± 200 nM
[14]
  EC50: 1630 ± 300 nM
[15]
  EC50: 2520 ± 200 nM
[16]
  GI50: 1790 nM
  IC (TGI): 3460 nM
[17]
  TGI: 3790 nM
[17]; Homo sapiens
  GI50: 1590 nM
[18]
  GI50: 1620 nM
  IC (TGI): 3160 nM
[18]; 786-0, read-out: LC50
  CC50: 6190 nM
[19]
  GI50: 1950 nM
  IC (TGI): 3730 nM
[19]; UACC-257, read-out: LC50
  CC50: 7140 nM
[20]
  IC (TGI): 3190 nM
  GI50: 1640 nM
  CC50: 6120 nM
[21]
  IC (TGI): 2810 nM
  GI50: 1450 nM
[22]
  GI50: 1580 nM
  IC (TGI): 3010 nM
[22]; SF-539, read-out: LC50
  CC50: 5720 nM
[23]
  GI50: 1830 nM
  IC (TGI): 3510 nM
[23]; OVCAR-8, read-out: LC50
  CC50: 6730 nM
[24]
  IC (TGI): 3350 nM
  GI50: 1710 nM
  CC50: 6490 nM
[25]
  GI50: 1740 nM
  IC (TGI): 3540 nM
[25]; SF-268, read-out: LC50
  CC50: 7190 nM

## C=C(C)[C@@H]1CC[C@]2(COS(=O)(=O)c3ccc(C)cc3)CC[C@]3(C)[C@@H](CC[C@@H]4[C@@]5(C)CCCNC(C)(C)[C@@H]5CC[C@]43C)[C@@H]12 [Compound 12]
[1]
  GI50: 1750 nM
[2]
  GI50: 1980 nM
  IC (TGI): 3450 nM
[3]
  GI50: 1580 nM
[4]
  GI50: 1680 nM
[5]
  GI50: 1670 nM
  IC (TGI): 3080 nM
[6]
  GI50: 1860 nM
  IC (TGI): 4540 nM
  CC50: > 100000 nM
[7]; [26]
  IC (TGI): 3190 nM
[7]; [27]
  GI50: 1730 nM
[8]
  IC (TGI): 3500 nM
  GI50: 1710 nM
[9]
  GI50: 1740 nM
  IC (TGI): 3330 nM
[10]
  GI50: 1700 nM
  IC (TGI): 3230 nM
[11]
  EC50: 1590 ± 100 nM
[12]
  EC50: 1630 ± 100 nM
[13]
  EC50: 1680 ± 100 nM
[14]
  EC50: 1960 ± 300 nM
[15]
  EC50: 2030 ± 100 nM
[16]
  GI50: 1840 nM
  IC (TGI): 3560 nM
[18]
  GI50: 1920 nM
  IC (TGI): 3590 nM
[19]
  GI50: 1970 nM
  IC (TGI): 3650 nM
[20]
  IC (TGI): 3420 nM
  GI50: 1870 nM
[21]
  IC (TGI): 3380 nM
  GI50: 1860 nM
[22]
  GI50: 1700 nM
[23]
  GI50: 1910 nM
  IC (TGI): 3650 nM
[24]
  IC (TGI): 3250 nM
  GI50: 1710 nM
[25]
  GI50: 1880 nM
  IC (TGI): 3790 nM

## C[C@H]1[C@H](C)CC[C@]2(C(=O)Nc3ccc4ncccc4c3)CC[C@]3(C)C(=CC[C@@H]4[C@@]5(C)CCCNC(C)(C)[C@@H]5CC[C@]43C)[C@H]12 [Compound 14]
[1]
  GI50: 1760 nM
  IC (TGI): 3390 nM
[2]
  GI50: 1770 nM
  IC (TGI): 3240 nM
[3]
  GI50: 1400 nM
[4]
  GI50: 1940 nM
  IC (TGI): 3820 nM
  CC50: 7530 nM
[5]
  GI50: 1850 nM
  IC (TGI): 3320 nM
  CC50: 5940 nM
[6]
  GI50: 1600 nM
[7]; Homo sapiens, MDA-MB-435
  GI50: 1580 nM
[7]; Homo sapiens, MDA-MB-435, 48 h, read-out: TGI
  IC (TGI): 3000 nM
[7]; MDA-MB-435, 1 dose 10 µM
  Growth % of the Most Sensitive Cell Lines: −91.82%
[8]
  IC (TGI): 3440 nM
  GI50: 1760 nM
  CC50: 6870 nM
[9]
  GI50: 1740 nM
  IC (TGI): 3450 nM
  CC50: 6870 nM
[10]
  GI50: 1750 nM
  IC (TGI): 3330 nM
[11]
  EC50: 1790 ± 200 nM
[12]
  EC50: 1640 ± 100 nM
[13]
  EC50: 1800 ± 100 nM
[14]
  EC50: 1550 ± 100 nM
[15]
  EC50: 1570 ± 800 nM
[16]
  GI50: 1840 nM
[18]
  GI50: 1850 nM
  IC (TGI): 3480 nM
[19]
  GI50: 1870 nM
  IC (TGI): 3540 nM
[20]
  IC (TGI): 3320 nM
  GI50: 1770 nM
  CC50: 6250 nM
[21]
  IC (TGI): 3250 nM
  GI50: 1660 nM
[22]
  GI50: 1610 nM
  IC (TGI): 3010 nM
[23]
  GI50: 1860 nM
[24]
  IC (TGI): 3360 nM
  GI50: 1780 nM
  CC50: 7530 nM
[25]
  GI50: 1730 nM
